Experimental data taken from PubChem BioAssay AID212 (DTP/NCI, 2004).
Where “and” joins values, the source holds several entries; their conditions need not be identical. Identical values can stand only once. Results filed as inconclusive are left out.

System: BDF1 mice, colon carcinoma 38 sc, T/C %
Assay: NCI In Vivo Anticancer Drug Screen. Data for tumor model Colon Carcinoma 38 (subcutaneous) in B6D2F1 (BDF1) mice
Method in brief: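 Ratio of survival or tumor size, compound-treated animals relative to vehicle controls, in tumor-bearing mice.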

[1] = endpoint: median tumor weight (est.), dose: 1.0 mg/kg/injection, schedule: Q07DX002 (ip), vehicle: saline, higher = larger tumour
[2] = endpoint: median tumor weight (est.), dose: 2.0 mg/kg/injection, schedule: Q07DX002 (ip), vehicle: saline, higher = larger tumour
[3] = endpoint: median tumor weight (est.), dose: 50.0 mg/kg/injection, schedule: Q07DX002 (ip), vehicle: Klucel (hydroxypropylcellulose) (HPC), higher = larger tumour
[4] = endpoint: median tumor weight (est.), dose: 200.0 mg/kg/injection, schedule: Q07DX002 (ip), vehicle: Klucel (hydroxypropylcellulose) (HPC), higher = larger tumour
[5] = endpoint: median tumor weight (est.), dose: 12.5 mg/kg/injection, schedule: Q07DX002 (ip), vehicle: Klucel (hydroxypropylcellulose) (HPC), higher = larger tumour
[6] = endpoint: median tumor weight (est.), dose: 25.0 mg/kg/injection, schedule: Q07DX002 (ip), vehicle: Klucel (hydroxypropylcellulose) (HPC), higher = larger tumour
[7] = endpoint: median tumor weight (est.), dose: 12.5 mg/kg/injection, schedule: Q07DX002 (ip), vehicle: saline with Tween-80, higher = larger tumour
[8] = endpoint: median tumor weight (est.), dose: 25.0 mg/kg/injection, schedule: Q07DX002 (ip), vehicle: saline with Tween-80, higher = larger tumour
[9] = endpoint: median tumor weight (est.), dose: 50.0 mg/kg/injection, schedule: Q07DX002 (ip), vehicle: saline with Tween-80, higher = larger tumour
[10] = endpoint: median tumor weight (est.), dose: 100.0 mg/kg/injection, schedule: Q07DX002 (ip), vehicle: saline with Tween-80, higher = larger tumour
[11] = endpoint: median tumor weight (est.), dose: 200.0 mg/kg/injection, schedule: Q07DX002 (ip), vehicle: saline with Tween-80, higher = larger tumour
[12] = endpoint: median tumor weight (est.), dose: 400.0 mg/kg/injection, schedule: Q07DX002 (ip), vehicle: saline with Tween-80, higher = larger tumour
[13] = endpoint: median tumor weight (est.), dose: 100.0 mg/kg/injection, schedule: Q07DX002 (ip), vehicle: saline, higher = larger tumour

CC1OC(OC2CC(O)(C(=O)CO)Cc3c(O)c4c(c(O)c32)C(=O)c2ccccc2C4=O)CC(N)C1O (configuration not stated)
T/C (endpoint: median survival time, dose: 1.2 mg/kg/injection, schedule: Q07DX003 (iv), vehicle: saline, higher = longer survival): 108 % of control
T/C (endpoint: median survival time, dose: 1.9 mg/kg/injection, schedule: Q07DX003 (iv), vehicle: saline, higher = longer survival): 111 % of control
T/C (endpoint: median tumor weight (est.), dose: 0.12 mg/kg/injection, schedule: Q07DX002 (ip), vehicle: water, higher = larger tumour): 120 % of control
T/C (endpoint: median tumor weight (est.), dose: 0.25 mg/kg/injection, schedule: Q07DX002 (ip), vehicle: saline, higher = larger tumour): 113 % of control
T/C (endpoint: median tumor weight (est.), dose: 0.25 mg/kg/injection, schedule: Q07DX002 (ip), vehicle: water, higher = larger tumour): 90 % of control
T/C (endpoint: median tumor weight (est.), dose: 0.5 mg/kg/injection, schedule: Q07DX002 (ip), vehicle: saline, higher = larger tumour): 104 % of control
T/C (endpoint: median tumor weight (est.), dose: 0.5 mg/kg/injection, schedule: Q07DX002 (ip), vehicle: water, higher = larger tumour): 78 % of control
T/C [1]: 69 % of control
T/C (endpoint: median tumor weight (est.), dose: 1.0 mg/kg/injection, schedule: Q07DX002 (ip), vehicle: water, higher = larger tumour): 23 % of control
T/C [2]: 72 % of control

Cc1cc(O)c2c(c1O)C(=O)C13C(=C2O)C(=O)C2C(O)C1C1C(O)C3C(=O)C3=C(O)c4c(O)cc(C)c(O)c4C(=O)C321 (configuration not stated)
T/C (endpoint: median tumor weight (est.), dose: 6.25 mg/kg/injection, schedule: Q07DX002 (ip), vehicle: saline with Tween-80, higher = larger tumour): 68 % of control

N#CCCN(C(=S)Nc1cccc(C(F)(F)F)c1)C1CCCCC1
T/C [3]: 67 % of control and 71 % of control
T/C [4]: 76 % of control and 80 % of control and 88 % of control
T/C (endpoint: median tumor weight (est.), dose: 800.0 mg/kg/injection, schedule: Q07DX002 (ip), vehicle: Klucel (hydroxypropylcellulose) (HPC), higher = larger tumour): 79 % of control and 92 % of control

COc1ccc([I+]c2cccc(Cl)c2)cc1Cl
T/C (endpoint: median tumor weight (est.), dose: 6.25 mg/kg/injection, schedule: Q07DX003 (ip), vehicle: saline with Tween-80, higher = larger tumour): 54 % of control
T/C (endpoint: median tumor weight (est.), dose: 12.5 mg/kg/injection, schedule: Q07DX003 (ip), vehicle: saline with Tween-80, higher = larger tumour): 78 % of control
T/C (endpoint: median tumor weight (est.), dose: 25.0 mg/kg/injection, schedule: Q07DX003 (ip), vehicle: saline with Tween-80, higher = larger tumour): 100 % of control
T/C (endpoint: median tumor weight (est.), dose: 50.0 mg/kg/injection, schedule: Q07DX003 (ip), vehicle: saline with Tween-80, higher = larger tumour): 111 % of control
T/C (endpoint: median tumor weight (est.), dose: 100.0 mg/kg/injection, schedule: Q07DX003 (ip), vehicle: saline with Tween-80, higher = larger tumour): 105 % of control
T/C (endpoint: median tumor weight (est.), dose: 200.0 mg/kg/injection, schedule: Q07DX003 (ip), vehicle: saline with Tween-80, higher = larger tumour): 72 % of control

O=NN(CCCl)C(=O)Oc1ccc(OC(=O)N(CCCl)N=O)cc1
T/C (endpoint: median tumor weight (est.), dose: 6.25 mg/kg/injection, schedule: Q07DX002 (ip), vehicle: Klucel (hydroxypropylcellulose) (HPC), higher = larger tumour): 75 % of control
T/C [5]: 72 % of control
T/C [6]: 85 % of control
T/C [3]: 54 % of control

O=c1[nH]c(=O)n([C@H]2CCCO2)cc1F
T/C (endpoint: median tumor weight (est.), dose: 40.0 mg/kg/injection, schedule: Q07DX003 (ip), vehicle: Klucel (hydroxypropylcellulose) (HPC), higher = larger tumour): 166 % of control
T/C (endpoint: median tumor weight (est.), dose: 80.0 mg/kg/injection, schedule: Q07DX003 (ip), vehicle: Klucel (hydroxypropylcellulose) (HPC), higher = larger tumour): 116 % of control
T/C (endpoint: median tumor weight (est.), dose: 160.0 mg/kg/injection, schedule: Q07DX003 (ip), vehicle: Klucel (hydroxypropylcellulose) (HPC), higher = larger tumour): 57 % of control
T/C (endpoint: median tumor weight (est.), dose: 320.0 mg/kg/injection, schedule: Q07DX003 (ip), vehicle: Klucel (hydroxypropylcellulose) (HPC), higher = larger tumour): 25 % of control

COc1cc([C@@H]2c3cc4c(c(O)c3C[C@H]3COC(=O)[C@@H]32)OCO4)cc(OC)c1OC
T/C [1]: 81 % of control
T/C [2]: 67 % of control
T/C (endpoint: median tumor weight (est.), dose: 4.0 mg/kg/injection, schedule: Q07DX002 (ip), vehicle: saline, higher = larger tumour): 76 % of control
T/C (endpoint: median tumor weight (est.), dose: 8.0 mg/kg/injection, schedule: Q07DX002 (ip), vehicle: saline, higher = larger tumour): 73 % of control
T/C (endpoint: median tumor weight (est.), dose: 16.0 mg/kg/injection, schedule: Q07DX002 (ip), vehicle: saline, higher = larger tumour): 70 % of control

CCCCCCCCCCS(=O)CC(CO)NC(=O)/C=C/c1c(C)[nH]c(=O)[nH]c1=O (configuration not stated)
T/C (endpoint: median tumor weight (est.), dose: 1.5 mg/kg/injection, schedule: Q07DX002 (ip), vehicle: distilled water + Tween-80, higher = larger tumour): 76 % of control and 96 % of control
T/C (endpoint: median tumor weight (est.), dose: 3.0 mg/kg/injection, schedule: Q07DX002 (ip), vehicle: distilled water + Tween-80, higher = larger tumour): 109 % of control and 96 % of control
T/C (endpoint: median tumor weight (est.), dose: 12.0 mg/kg/injection, schedule: Q07DX002 (ip), vehicle: distilled water + Tween-80, higher = larger tumour): 112 % of control and 115 % of control
T/C (endpoint: median tumor weight (est.), dose: 48.0 mg/kg/injection, schedule: Q07DX002 (ip), vehicle: distilled water + Tween-80, higher = larger tumour): 80 % of control

ClCCCCCCCCCCc1ccccc1
T/C [5]: 83 % of control
T/C (endpoint: median tumor weight (est.), dose: 12.5 mg/kg/injection, schedule: Q07DX003 (ip), vehicle: Klucel (hydroxypropylcellulose) (HPC), higher = larger tumour): 77 % of control
T/C [6]: 83 % of control
T/C (endpoint: median tumor weight (est.), dose: 25.0 mg/kg/injection, schedule: Q07DX003 (ip), vehicle: Klucel (hydroxypropylcellulose) (HPC), higher = larger tumour): 95 % of control
T/C (endpoint: median tumor weight (est.), dose: 50.0 mg/kg/injection, schedule: Q07DX003 (ip), vehicle: Klucel (hydroxypropylcellulose) (HPC), higher = larger tumour): 63 % of control
T/C (endpoint: median tumor weight (est.), dose: 100.0 mg/kg/injection, schedule: Q07DX002 (ip), vehicle: Klucel (hydroxypropylcellulose) (HPC), higher = larger tumour): 67 % of control
T/C (endpoint: median tumor weight (est.), dose: 100.0 mg/kg/injection, schedule: Q07DX003 (ip), vehicle: Klucel (hydroxypropylcellulose) (HPC), higher = larger tumour): 65 % of control
T/C [4]: 80 % of control
T/C (endpoint: median tumor weight (est.), dose: 200.0 mg/kg/injection, schedule: Q07DX003 (ip), vehicle: Klucel (hydroxypropylcellulose) (HPC), higher = larger tumour): 90 % of control
T/C (endpoint: median tumor weight (est.), dose: 400.0 mg/kg/injection, schedule: Q07DX002 (ip), vehicle: Klucel (hydroxypropylcellulose) (HPC), higher = larger tumour): 88 % of control
T/C (endpoint: median tumor weight (est.), dose: 400.0 mg/kg/injection, schedule: Q07DX003 (ip), vehicle: Klucel (hydroxypropylcellulose) (HPC), higher = larger tumour): 51 % of control

CCC[CH2][Hg][Cl]
T/C (endpoint: median tumor weight (est.), dose: 0.62 mg/kg/injection, schedule: Q07DX002 (ip), vehicle: Klucel (hydroxypropylcellulose) (HPC), higher = larger tumour): 99 % of control
T/C (endpoint: median tumor weight (est.), dose: 2.5 mg/kg/injection, schedule: Q07DX002 (ip), vehicle: Klucel (hydroxypropylcellulose) (HPC), higher = larger tumour): 92 % of control
T/C (endpoint: median tumor weight (est.), dose: 5.0 mg/kg/injection, schedule: Q07DX002 (ip), vehicle: Klucel (hydroxypropylcellulose) (HPC), higher = larger tumour): 105 % of control
T/C (endpoint: median tumor weight (est.), dose: 20.0 mg/kg/injection, schedule: Q07DX002 (ip), vehicle: Klucel (hydroxypropylcellulose) (HPC), higher = larger tumour): 113 % of control

COc1cc(C2c3cc4c(cc3C(O)C(CO)C2CO)OCO4)cc(OC)c1OC (configuration not stated)
T/C [7]: 81 % of control
T/C [8]: 155 % of control
T/C [9]: 180 % of control
T/C [10]: 203 % of control
T/C [11]: 160 % of control
T/C [12]: 174 % of control

O=C[C@@H](CO)O[C@H](C=O)c1c[nH]c(=O)[nH]c1=O
T/C (endpoint: median tumor weight (est.), dose: 12.5 mg/kg/injection, schedule: Q07DX002 (ip), vehicle: saline, higher = larger tumour): 121 % of control
T/C (endpoint: median tumor weight (est.), dose: 50.0 mg/kg/injection, schedule: Q07DX002 (ip), vehicle: saline, higher = larger tumour): 83 % of control
T/C [13]: 121 % of control
T/C (endpoint: median tumor weight (est.), dose: 200.0 mg/kg/injection, schedule: Q07DX002 (ip), vehicle: saline, higher = larger tumour): 57 % of control

Cc1c2cc[n+](CCN3CCCCC3)cc2c(C)c2c1[nH]c1ccc(O)cc12
T/C (endpoint: median tumor weight (est.), dose: 3.12 mg/kg/injection, schedule: Q07DX002 (ip), vehicle: saline, higher = larger tumour): 36 % of control
T/C (endpoint: median tumor weight (est.), dose: 3.12 mg/kg/injection, schedule: Q07DX002 (ip), vehicle: suspension in saline, higher = larger tumour): 100 % of control
T/C (endpoint: median tumor weight (est.), dose: 6.25 mg/kg/injection, schedule: Q07DX002 (ip), vehicle: saline, higher = larger tumour): 53 % of control and 61 % of control
T/C (endpoint: median tumor weight (est.), dose: 6.25 mg/kg/injection, schedule: Q07DX002 (ip), vehicle: suspension in saline, higher = larger tumour): 104 % of control
T/C (endpoint: median tumor weight (est.), dose: 12.5 mg/kg/injection, schedule: Q07DX002 (ip), vehicle: suspension in saline, higher = larger tumour): 86 % of control
T/C (endpoint: median tumor weight (est.), dose: 25.0 mg/kg/injection, schedule: Q07DX002 (ip), vehicle: saline, higher = larger tumour): 39 % of control and 64 % of control
T/C (endpoint: median tumor weight (est.), dose: 25.0 mg/kg/injection, schedule: Q07DX002 (ip), vehicle: suspension in saline, higher = larger tumour): 69 % of control
T/C (endpoint: median tumor weight (est.), dose: 50.0 mg/kg/injection, schedule: Q07DX002 (ip), vehicle: suspension in saline, higher = larger tumour): 39 % of control
T/C [13]: 36 % of control and 47 % of control

Oc1cc2ccccc2c(-c2c(O)c(O)cc3ccccc23)c1O
T/C [7]: 94 % of control
T/C [8]: 119 % of control
T/C [9]: 114 % of control
T/C [10]: 81 % of control
T/C [11]: 64 % of control
T/C [12]: 64 % of control
